Several values for one entry are separate records, joined by “and”; a condition that tells them apart may be missing. Identical values can stand only once. ± gives the expanded uncertainty stated by the source.
Key:
[1] = 101.33 kPa, Liquid; for speed of sound: Sing-around technique in a fixed-path interferometer
[2] = φn = volume fraction of the nth substance listed; settings: 101 kPa, Liquid, φ1 = 0.5

CN(CCO)CCO [N-methyldiethanolamine]
[1]
Settings | speed of sound [m/s]
288.15 K | 1598.8 ± 3.3
293.15 K | 1583.1 ± 3.3
298.15 K | 1564.1 ± 3.3
303.15 K | 1546 ± 3.2
308.15 K | 1531 ± 3.2
313.15 K | 1516.1 ± 3.2
318.15 K | 1503.2 ± 3.2
323.15 K | 1490.4 ± 3.2

[1], Vibrating tube method
Settings | mass density [kg/m3]
288.15 K | 1044.32 ± 1.2
293.15 K | 1040.59 ± 1.2
298.15 K | 1036.79 ± 1.2
303.15 K | 1033.06 ± 1.2
308.15 K | 1029.26 ± 1.2
313.15 K | 1025.45 ± 1.1
318.15 K | 1021.62 ± 1.1
323.15 K | 1018.22 ± 1.1

CCO [ethanol] + O
[2]
Settings | mass density | speed of sound [m/s]
288.15 K | 930.86 ± 0.7 kg/m3 | 1546.7 ± 3.2
293.15 K | 927.08 ± 0.71 kg/m3 | 1534.1 ± 3.2
298.15 K | 923.22 ± 0.72 kg/m3 | 1521.1 ± 3.2
303.15 K | 919.31 ± 0.73 kg/m3 | 1507.9 ± 3.2
308.15 K | 915.32 ± 0.74 kg/m3 | 1494.5 ± 3.2
313.15 K | 911.27 ± 0.75 kg/m3 | 1480.9 ± 3.2
318.15 K | 908.03 ± 0.76 kg/m3 and 907.3 ± 0.76 kg/m3 | 1467 ± 3.1
323.15 K | 904.32 ± 0.77 kg/m3 and 903.71 ± 0.77 kg/m3 | 1452.9 ± 3.1

OCCN(CCO)CCO [triethanolamine]
[1]
Settings | mass density [kg/m3] | speed of sound [m/s]
288.15 K | 1126.19 ± 2.2 | 1631.1 ± 3.4
293.15 K | 1123.42 ± 2.1 | 1623.9 ± 3.3
298.15 K | 1120.99 ± 2.1 | 1614.5 ± 3.3
303.15 K | 1118.21 ± 2.1 | 1604.5 ± 3.3
308.15 K | 1115.38 ± 2.1 | 1595.5 ± 3.3
313.15 K | 1112.57 ± 2.1 | 1587 ± 3.3
318.15 K | 1109.78 ± 2.1 | 1578.8 ± 3.3
323.15 K | 1106.93 ± 2 | 1570.6 ± 3.3
